In US7387779B2, “Anti-angiogenic proteins and fragments and methods of use thereof” (Beth Israel Deaconess Medical Center, priority 1998, dated 2008):
Values joined by “and” are separate entries in the source; they are usually repeats but may differ in a detail not shown here. Equal values may be shown once. Read-outs that look alike come from different tables or passages of the source.

Key:
PC3 tumor xenografts [1] = experiment: PC3 human prostate tumor xenograft (Example 58); assay type: in vivo, nude NCRNU mice
Experimental: Male nude NCRNU mice, 5-6 weeks old, weighing approximately 25 grams, 6 were implanted with 2×10^6 PC3 cells into the dorsal subcutis. When the tumors were 60 mm^3, the animals were pair-matched into treatment and control groups. Each group contained 6-7 tumored mice, each of which was ear-tagged and followed individually throughout the experiment. Initial doses of peptide or vehicle control were given on the day of pair-matching (Day 0), and were administered via intraperitoneal (i.p.) injection at doses indicated. Mice were weighed weekly, and tumor measurements were taken by calipers weekly. These tumor measurements were converted to tumor volume by a well-known formula, (V=W^2×L/2), and mean tumor volumes were plotted against time. Mice were euthenized at the end of the treatment period. Upon termination, the mice were weighed, sacrificed and their tumors were excised. The mean tumor weight per group was calculated, and the value of mean treated tumor volume or volume ratio/mean control tumor volume or volume ratio×100 was subtracted from 100% to give the tumor growth inhibition (TG1) for each group. All groups received injections I.P. daily, except for two T8-treated groups, which were treated twice per week and once a week, respectively.

PC3 tumor xenografts [2] = experiment: PC3 human prostate tumor xenograft (Example 59); assay type: in vivo, nude NCRNU mice; conditions: 5.0 mg/kg i.p. daily, 3 weeks
Text: (§1) For tests involving the MDAMB-435 model, female nude NCRNU mice, 5-6 weeks old, weighing approximately 20 grams, were implanted with 2×10^6 MDAMB-435 cells into the subaxillary mammary fat pad. For tests involving the PC3 model, male nude NCRNU mice, 5-6 weeks old, weighing approximately 25 g were implanted with 2×10^6 PC3 cells into the dorsal subcutis. When the tumors were 100 mm^3 (for the MDAMB-435 model), or 60 mm^3 (for the PC3 model), the animals were pair-matched into treatment and control groups.
(§2) Each group contained 6-7 tumored mice, each of which was ear-tagged and followed individually throughout the experiment. Initial doses of peptide or vehicle control were given on the day of pair-matching (Day 0), and were administered daily via intraperitoneal (i.p.) injection at doses indicated. Mice were weighed weekly, and tumor measurements were taken by calipers weekly, starting on Day 0. These tumor measurements were converted to tumor volume by a well-known formula, (V=W^2×L/2) and mean tumor volumes were plotted against time. Mice were euthenized at the end of the treatment period. Upon termination, the mice were weighed, sacrificed and their tumors were excised. The mean tumor weight per group was calculated, and the mean treated tumor volume/control tumor volume×100 was subtracted from 100% to give the tumor growth inhibition (TGI) for each group.

[3] = system: MDAMB-435 tumor xenografts; experiment: MDAMB-435 human breast orthotopic xenograft (Example 57); assay type: in vivo, nude NCRNU mice; conditions: four weeks; for Final Tumor Weight (V/Vo) ± SEM: control 3.77 ± 0.38
Experimental: Female nude NCRNU mice, 5-6 weeks old, weighing approximately 20 grams, were implanted with 2×10^6 MDAMB-435 cells into the subaxillary mammary fat pad. When the tumors were 100 mm^3, the animals were pair-matched into treatment and control groups. Each group contained 6-7 tumored mice, each of which was ear-tagged and followed individually throughout the experiment. Initial doses of T8 or TP3 peptide or vehicle control were given on the day of pair-matching (Day 0), and were administered via intraperitoneal (i.p.) injection at doses indicated. Mice were weighed twice weekly, and tumor measurements were taken by calipers twice weekly, starting on Day 1. These tumor measurements were converted to tumor volume by a well-known formula, (V=W^2×L/2) and mean tumor volumes as well as volume ratios (V/Vo) were plotted against time. Mice were euthanized at the end of the treatment period. Upon termination, the mice were weighed, sacrificed and their tumors were excised. The mean tumor weight per group was calculated, and the mean value (treated tumor ratio/mean control tumor ratio× 100) was subtracted from 100% to give the tumor growth inhibition (TGI) for each group.
Treatment was initiated when tumor volumes reached […]. All groups received injections I.P. daily, except for one T8-treated group, which was treated twice per week.

[4] = system: MDAMB-435 tumor xenografts; assay type: in vivo; conditions: for Final Tumor Weight ± SEM: control 333.3 ± 39.61
Experimental: Female nude NCRNU mice, 5-6 weeks old, weighing approximately 20 grams, were implanted with 2×10^6 MDAMB-435 cells in the subaxillary mammary fat pad. When the tumors were 100 mm^3, the animals were pair-matched into treatment and control groups. Each group contained 7 tumored mice, each of which was ear-tagged and followed individually throughout the experiment. Initial doses of T8 peptide or vehicle control were given on the day of pair-matching (Day 0), and were administered via intraperitoneal (i.p.) injection at 1 mg and 2.5 mg per kg animal weight. Mice were weighed twice weekly, and tumor measurements were taken by calipers twice weekly, starting on Day 1. These tumor measurements were converted to tumor volume by the well-known formula V=W2×L/2, and mean tumor volumes were plotted against time. Mice were euthenized at the end of the treatment period. Upon termination, the mice were weighed, sacrificed and their tumors were excised. The mean tumor weight per group was calculated, and the value of (mean treated tumor weight/mean control tumor weight×100) was subtracted from 100% to give the tumor growth inhibition (TGI) for each group.
Treatment was initiated when tumor volumes reached 100 mm^3. All groups received injections bid, i.p., for 26 days.

[5] = system: MDAMB-435 tumor xenografts; experiment: MDAMB-435 human breast tumor xenograft (Example 59); assay type: in vivo, nude NCRNU mice; conditions: 5.0 mg/kg i.p. daily, 3 weeks
Text: as §1, §2

[6] = system: mouse aortic endothelial cells (MAE); experiment: Endothelial tube formation on Matrigel; assay type: cell-based; conditions: endothelial tube assay (FIGS. 30 and 31)
Experimental: To measure inhibition of endothelial tube formation, 320 μl of Matrigel (Collaborative Biomedical Products, Bedford, Mass., USA) was added to each well of a 24-well plate and allowed to polymerize (Grant, D. S. et al., 1994, Pathol. Res. Pract. 190:854-63). A suspension of 25,000 mouse aortic endothelial cells (MAE) in EGM-2 medium (Clonetics Corp., San Diego, Calif., USA) without antibiotic was passed into each well coated with Matrigel. The cells were treated with increasing concentrations of either Arresten, BSA, sterile PBS or the 7S domain. All assays were performed in triplicate. Cells were incubated for 24-48 hours at 37° C. and viewed using a CK2 Olympus microscope (3.3 ocular, 10× objective). The cells were then photographed using 400 DK coated TMAX film (Kodak). Cells were stained with diff-quik fixative (Sigma Chemical Company, St. Louis, Mo., USA) and photographed again. Ten fields were viewed, and the tubes counted and averaged.
Matrigel (Collaborative Biomedical Products, Bedford, Mass., USA) was added ([…]) to each well of a 24 well plate and allowed to polymerize (Grant, D. S. et al., supra). A suspension of 25,000 mouse aortic endothelial cells (MAE) in EGM-2 (Clonetics Corporation, San Diego, Calif., USA) medium without antibiotic was passed into each well coated with Matrigel. The cells were treated with either Canstatin, BSA, sterile PBS or α5-NC1 domain in increasing concentrations. All assays were performed in triplicate. Cells were incubated for 24-48 hours at 37° C. and viewed using a CK2 Olympus microscope (3.3 ocular, 10× objective). The cells were then photographed using 400 DK coated TMAX film (Kodak). Cells were stained with diff-quik fixative (Sigma Chemical Co., St. Louis, Mo., USA) and photographed again (Grant, D. S. et al., 1994, Pathol. Res. Pract. 190:854-63). Ten fields were viewed, tubes counted and averaged.
Matrigel (Collaborative Biomedical Prods., Bedford, Mass., USA) was added ([…]) to each well of a 24-well plate and allowed to polymerize (Grant, D. S. et al., 1994, Pathol. Res. Pract. 190:854-63). A suspension of 25,000 MAE cells in EGM-2 medium (Clonetics Corporation, San Diego, Calif., USA) without antibiotic was passed into each well coated with Matrigel (Grant, D. S. et al., 1994, Pathol. Res. Pract. 190:854-63). The cells were treated with either Tumstatin, BSA or 7S domain in increasing concentrations. Control cells were incubated with sterile PBS. All assays were performed in triplicate. Cells were incubated for 24-48 hours at 37° C. and viewed using a CK2 Olympus microscope (magnification of 3.3× ocular, 10× objective). The cells were then photographed using 400 DK coated TMAX film (Kodak). Cells were stained with diff-quik fixative (Sigma Chemical Co.) and photographed again (Grant, D. S. et al., 1994, Pathol. Res. Pract. 190:854-63). Ten fields were viewed, and the number of tubes were counted by two investigators unaware of the experimental protocols, and averaged.
Fragments and mutants of Arresten and Canstatin were also made according to the Pseudomonas elastase digestions of Mariyama et al. (1992, J. Biol. Chem. 267:1253-58). The digest was resolved by gel filtration HPLC and the resultant fragments were analyzed by SDS-PAGE and evaluated in the endothelial tube assay described above. These fragments included a 12 kDa fragment of Arresten, an 8 kDa fragment of Arresten, and a 10 kDa fragment of Canstatin. In addition, two fragments of Tumstatin (‘333’ and ‘334’) were generated by PCR cloning.

[7] = 5.0 mg/kg i.p. daily, 3 weeks, T7 vehicle 5.626 ± 0.38, T8 vehicle 6.278 ± 1.483
[8] = 5.0 mg/kg, printed (2x/week) again, once a week in the text

KQRFTTMPFLFCNVNDVCNFASRNDYS [T8]
% Tumor growth inhibition (PC3 tumor xenografts [1]; 5.0 mg/kg (2x/week)): 8.1%
Final Tumor Weight (V/Vo) ± SEM (PC3 tumor xenografts [1]; 5.0 mg/kg (2x/week)): 5.770 ± 1.156
% Tumor growth inhibition (PC3 tumor xenografts [1]; 5.0 mg/kg i.p. daily, 3 weeks): 45%
Final Tumor Weight (V/Vo) ± SEM (PC3 tumor xenografts [1]; [7]): 3.455 ± 1.228
% Tumor growth inhibition (PC3 tumor xenografts [1]; [8]): 39.5%
Final Tumor Weight (V/Vo) ± SEM (PC3 tumor xenografts [1]; [8]): 3.800 ± 1.602
% Tumor growth inhibition (PC3 tumor xenografts [2]): 35.4%
Final Tumor Weight (V/Vo) ± SEM (PC3 tumor xenografts [2]; control 1070.0 ± 132.5): 691.4 ± 90.52
Final Tumor Weight (V/Vo) ± SEM ([3]; 5.0 mg/kg (2x/week)): 2.21 ± 0.31
% Tumor growth inhibition ([3]; 5.0 mg/kg I.P. daily): 31%
Final Tumor Weight (V/Vo) ± SEM ([3]; 5.0 mg/kg I.P. daily): 2.60 ± 0.38
% Tumor growth inhibition ([4]; 2.5 mg/kg, bid i.p., 26 days): ~49% and 47.91%
Final Tumor Weight ± SEM ([4]; 2.5 mg/kg, bid i.p., 26 days): 173.6 ± 23.73
Final Tumor Weight ± SEM ([4]; Dosage 1.9 mg/kg as printed (1 mg/kg in the text), bid i.p., 26 days): 237.8 ± 31.88
toxicity as judged by weight change ([4]; mouse, in vivo): no toxicity
% Tumor growth inhibition [5]: 50.5%
Final Tumor Weight (V/Vo) ± SEM ([5]; control 468.5 ± 48.06): 231.9 ± 27.03

KLFCNVNCVCNFASRNDYS (TP3 (amino acids 76-94 of SEQ ID NO10; lysine has been substituted for the phenylalanine residue at position 76 of the full-length Tumstatin molecule, and cysteine has been substituted for the aspartic acid at position 83))
% Tumor growth inhibition (PC3 tumor xenografts [1]; 5.0 mg/kg i.p. daily, 3 weeks): 53.2%
Final Tumor Weight (V/Vo) ± SEM (PC3 tumor xenografts [1]; [7]): 2.940 ± 0.636
Final Tumor Weight (V/Vo) ± SEM ([3]; 1.0 mg/kg I.P. daily): 2.62 ± 0.45
% Tumor growth inhibition ([3]; 5.0 mg/kg I.P. daily): 50.0%
Final Tumor Weight (V/Vo) ± SEM ([3]; 5.0 mg/kg I.P. daily): 1.88 ± 0.29

B1: Tumstatin 333: residues 1 to 124 of full-length Tumstatin (SEQ ID NO:20) (protein)
chain: GLKGKRGDSGSPATWTTRGFVFTRHSQTTAIPSCPEGTVPLYSGFSFLFVQGNQRAHGQDLGTLGSCLQRFTTMPFLFCNVNDVCNFASRNDYSYWLSTPALMPMNMAPITGRALEPYISRCTV
modifications: Tumstatin 333 (amino acids 1-124 of3 SEQ ID NO10)
ED50 [6]: 0.075 µg/mL

B2: Tumstatin 334: residues 125 to 244 of full-length Tumstatin (SEQ ID NO:21) (protein)
chain: CEGPAIAIAVHSQTTDIPPCPHGWISLWKGFSFIMFTSAGSEGTGQALASPGSCLEEFRASPFLECHGRGTCNYYSNSYSFWLASLNPERMFRKPIPSTVKAGELEKIISRCQVCMKKRH
modifications: Tumstatin 334 (amino acids 125-244 of SEQ ID NO10)
ED50 [6]: 0.02 µg/mL
